In patent US11999727B2 (Tango Therapeutics, Inc., priority 2020, dated 2024):

Experiments:
PRMT5 [1] = target: T1, PRMT5 (Homo sapiens, UniProt O14744); test: PRMT5 biochemical IC50 assay with MTA as cofactor; conditions: PRMT5, MTA as cofactor; read-out: MTA IC50
T1 construct: purchased Viva (custom protein)

PRMT5 [2] = target: T1, PRMT5; test: PRMT5 biochemical IC50 assay with SAM as cofactor; conditions: PRMT5, SAM as cofactor; read-out: SAM IC50
[3] = tested on: HAP1 MTAP-deleted cell line; test: SDMA in-cell western assay, HAP1 MTAP-deleted; format: cell-based; conditions: for IC50: Homo sapiens, HAP1, SDMA in-cell western, HAP1 MTAP-deleted, read-out: HAP 1 MTAP deleted IC50; for MTAP intact/deleted ratio: IC50 ratio HAP1 MTAP-intact / HAP1 MTAP-deleted, SDMA in-cell western
In short: (§1)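 Isogenic HAP1 pair: the MTAP-intact line expresses endogenous MTAP, and the deleted line is MTAP-null. Symmetric dimethylarginine was detected by in-cell western and IC50 values derived for each line.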

[4] = tested on: HAP1 MTAP-deleted cell line; test: Viability assay, MTAP-deleted cell line; format: cell-based; conditions: Homo sapiens, HAP1, viability, HAP1 MTAP-deleted cell line; read-out: HAP1 MTAP deleted viability
Source text: Table 1 additionally indicates IC50 values in a viability assay for the MTAP-deleted cell line (column 10), indicating the effect of treatment with compound on cell survival.

PRMT5 [5] = target: T1, PRMT5; test: PRMT5 biochemical IC50 assay with no cofactor; conditions: PRMT5, no cofactor; read-out: No Cofactor/ rel IC50
Source text: Table 1 indicates IC50 values (μM) against PRMT5 for exemplary compounds in the presence of SAM as cofactor, with no cofactor, and with MTA as cofactor, respectively (columns 4-6). […] Ki values can be calculated from the IC50 values as described in the Examples section. As detailed in the Examples section, for the assay performed in the presence of SAM, IC50=Ki×1.5 (Ki=IC50/1.5).

[6] = tested on: HAP1 MTAP-intact cell line; test: SDMA in-cell western assay, HAP1 MTAP-intact; format: cell-based; conditions: Homo sapiens, HAP1, SDMA in-cell western, HAP1 MTAP-intact; read-out: MTAP HAP1 intact IC50
In short: as §1

T1 sequence (O14744 whole entry): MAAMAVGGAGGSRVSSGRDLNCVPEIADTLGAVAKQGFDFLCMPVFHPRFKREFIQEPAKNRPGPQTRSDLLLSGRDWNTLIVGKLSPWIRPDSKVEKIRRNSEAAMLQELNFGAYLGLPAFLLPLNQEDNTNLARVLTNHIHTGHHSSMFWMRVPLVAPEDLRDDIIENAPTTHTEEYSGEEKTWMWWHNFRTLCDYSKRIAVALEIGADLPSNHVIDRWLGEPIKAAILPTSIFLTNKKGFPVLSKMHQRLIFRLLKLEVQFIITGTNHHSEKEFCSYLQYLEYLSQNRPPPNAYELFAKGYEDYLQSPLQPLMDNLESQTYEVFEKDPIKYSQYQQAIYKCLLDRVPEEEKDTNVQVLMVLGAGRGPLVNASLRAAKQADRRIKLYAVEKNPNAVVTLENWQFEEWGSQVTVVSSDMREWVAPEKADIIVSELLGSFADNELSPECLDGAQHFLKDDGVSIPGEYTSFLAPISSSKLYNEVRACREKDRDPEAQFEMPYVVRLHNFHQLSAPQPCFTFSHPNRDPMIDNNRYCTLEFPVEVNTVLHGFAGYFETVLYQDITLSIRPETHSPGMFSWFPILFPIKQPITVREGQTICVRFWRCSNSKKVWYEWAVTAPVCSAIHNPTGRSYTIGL
T1 sequence (Q9BQA1 whole entry partner): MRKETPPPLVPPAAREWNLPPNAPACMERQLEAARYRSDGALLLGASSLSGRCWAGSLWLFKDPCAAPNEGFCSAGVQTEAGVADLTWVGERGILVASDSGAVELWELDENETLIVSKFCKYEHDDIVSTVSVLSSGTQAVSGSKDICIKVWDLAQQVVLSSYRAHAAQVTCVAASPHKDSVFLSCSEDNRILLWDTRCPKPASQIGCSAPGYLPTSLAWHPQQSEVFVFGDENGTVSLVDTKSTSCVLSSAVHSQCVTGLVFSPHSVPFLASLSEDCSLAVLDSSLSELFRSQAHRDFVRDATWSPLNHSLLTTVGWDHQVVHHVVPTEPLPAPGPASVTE

SMILES | IC50 (PRMT5 [1]) [µM] | IC50 (PRMT5 [2]) [µM] | IC50 [3] [µM] | MTAP intact/deleted ratio [3] | IC50 [4] [µM] | IC50 (PRMT5 [5]) [µM] | IC50 [6] [µM]
CCc1cc(NC(=O)C(=O)N2C[C@@H](C)CC[C@@H]2c2ccc3sc([C@H]4C[C@@H](C)N(C)[C@@H](C)C4)nc3c2)cnc1N [Compound 1261, N-(6-amino-5-ethylpyridin-3-yl)-2-((2R,5S)-5-methyl-2-(2-((2R,4r,6S)-1,2,6-trimethylpiperidin-4-yl)benzo[d]thiazol-5-yl)piperidin-1-yl)-2-oxoacetamide] | < 0.05 | < 0.05 | < 0.1 | A (an IC50 ratio greater than or equal to 10 fold) | < 1 | < 0.05 | < 0.1
CCc1cc(NC(=O)C(=O)N2C[C@@H](C)CC[C@@H]2c2ccc3sc(CCCN(C)C)nc3c2)cnc1N [Compound 1262, N-(6-amino-5-ethylpyridin-3-yl)-2-((2R,5S)-2-(2-(3-(dimethylamino)propyl)benzo[d]thiazol-5-yl)-5-methylpiperidin-1-yl)-2-oxoacetamide] | < 0.05 | < 0.05 | < 0.1 | A (an IC50 ratio greater than or equal to 10 fold) | < 1 | < 0.05 | < 0.1
C[C@H]1CC[C@H](c2ccc3c(c2)CCN(C)C3)N(C(=O)C(=O)Nc2cnc(N)c(C3CC3)c2)C1 [Compound 1264, N-(6-Amino-5-cyclopropyl-3-pyridyl)-2-[(2R,5S)-5-methyl-2-(2-methyl-3,4-dihydro-1H-isoquinolin-6-yl)-1-piperidyl]-2-oxo-acetamide] | < 0.05 | 0.05 to 0.5 | < 0.1 | A (an IC50 ratio greater than or equal to 10 fold) | < 1 | < 0.05 | 0.1 to 1
Cc1cc(NC(=O)C(=O)N2C[C@@H](C)CC[C@@H]2c2ccc3sc(C4COC4)nc3c2)cnc1N [Compound 1266, N-(6-amino-5-methylpyridin-3-yl)-2-((2R,5S)-5-methyl-2-(2-(oxetan-3-yl)benzo[d]thiazol-5-yl)piperidin-1-yl)-2-oxoacetamide] | < 0.05 | 0.05 to 0.5 | < 0.1 | A (an IC50 ratio greater than or equal to 10 fold) | < 1 | < 0.05 | < 0.1
CCc1cc(NC(=O)C(=O)N2C[C@@H](C)CC[C@@H]2c2ccc3sc(N4CCOCC4)nc3c2)cnc1N [Compound 1267, N-(6-amino-5-ethylpyridin-3-yl)-2-((2R,5S)-5-methyl-2-(2-morpholinobenzo[d]thiazol-5-yl)piperidin-1-yl)-2-oxoacetamide] | < 0.05 | 0.05 to 0.5 | < 0.1 | A (an IC50 ratio greater than or equal to 10 fold) | < 1 | < 0.05 | 0.1 to 1
Cc1cc(NC(=O)C(=O)N2C[C@@H](C)CC[C@@H]2c2ccc3sc(C4CCN(C5COC5)CC4)nc3c2)cnc1N [Compound 1268, N-(6-amino-5-methylpyridin-3-yl)-2-((2R,5S)-5-methyl-2-(2-(1-(oxetan-3-yl)piperidin-4-yl)benzo[d]thiazol-5-yl)piperidin-1-yl)-2-oxoacetamide] | < 0.05 | < 0.05 | < 0.1 | A (an IC50 ratio greater than or equal to 10 fold) | < 1 | < 0.05 | 0.1 to 1
CCc1cc(NC(=O)C(=O)N2C[C@@H](C)CC[C@@H]2c2ccn3cc(C4CCN(C)CC4)nc3c2)cnc1N [Compound 1274, N-(6-amino-5-ethylpyridin-3-yl)-2-((2R,5S)-5-methyl-2-(2-(1-methylpiperidin-4-yl)imidazo[1,2-a]pyridin-7-yl)piperidin-1-yl)-2-oxoacetamide] | < 0.05 | 0.05 to 0.5 | < 0.1 | A (an IC50 ratio greater than or equal to 10 fold) | < 1 | < 0.05 | 0.1 to 1
